Data on 16 molecules can be found in patent US11155551B2, “Nicotinic acetylcholine receptor silent agonists” (University of Florida Research Foundation, Inc., priority 2015, dated 2021).

In one data set the target is T1, human α7 nAChR (Homo sapiens, UniProt P36544).
T1 construct: expressed in transfected cells; host or cells: Xenopus oocytes
The data set is described as follows: Two-electrode voltage clamping of human α7 nAChR expressed in Xenopus oocytes (net-charge / peak current relative to 60 μM ACh). The data set is classed as cell-based. The settings on record: for Potentiated response: 30 μM test compound + 10 μM PNU-120596 co-application; for Potentiated response / Relative response: relative to 60 μM ACh control, mean ± SEM, N ≥ 4; for Relative response: net-charge response to 30 μM test compound alone; for functional classification at α7 nAChR: 30 μM alone and with 10 μM PNU-120596, partial agonist = net charge > 1/10th ACh control. As to the method:
Electrophysiology: The panel of compounds synthesized was assayed using human α7 nAChR expressed in Xenopus oocytes and two-electrode voltage clamping. The partial agonism activity was evaluated, quantified as net-charge for 30 μM applications of compounds, measured relative to the control response to applications of 60 μM ACh. The induction of PAM-sensitive desensitization was detected as the net-charge responses when compounds were co-applied with the PAM PNU-120596 (30 μM compound+10 μM PNU-120596), measured relative to responses to 60 μM ACh applied alone. […] It is a unique property of α7 orthosteric agonist-induced currents that they vary systematically in the relationship between peak current and net charge as a function of the effective concentration applied (Papke & Papke (2002) Br. J. Pharm. 137: 49-61; Papke & Thinschmidt (1998) Neurosci. Let. 256: 163-166). This was due to the concentration-dependent desensitization of the receptors, which is likely to be associated with high levels of agonist binding site occupancy (Williams et al., (2011) J. Gen. Physiol. 137: 369-384) and is observed even when agonists are rapidly applied to small cells (Williams et al., (2012) Mol. Pharmacol. 82: 746-759) or acutely dissociated neurons (Uteshev et al., (2002) Brain Res. 948: 33-46). The control ACh concentration used for these experiments is roughly the EC80 for the net-charge responses.
By normalizing both the peak currents and net-charge measurements of the drug responses at the probe concentration of 30 μM (FIG. 3B) to those of the ACh control, the relationship between the probe concentration and the EC for each of the drugs was estimated (Papke, R. L. (2005) Life Sci.). At a concentration where the ratio of the normalized measures equaled one, the drug would be at the same effective concentration as 60 μM ACh.
Electrophysiology: New compounds were assayed for activity with the α7 nAChR expressed in Xenopus oocytes using two-electrode voltage clamping as previously described in Papke et al., (2014) J. Pharmacol. Experimental Therap. 350: 665-680, incorporated herein by reference in its entirety, and compared to responses evoked by 60 μM Ach (FIGS. 5 and 6). The compound set was assayed at a concentration of 30 μM to provide a standard comparison benchmark.
Based on earlier experience this concentration is high enough to provide an observable response and low enough to avoid possible complications such as channel block. The net-charge response for each compound application is reported relative to those for ACh control applications. Data were expressed as the mean ±S.E.M. from at least four oocytes for each experiment and were plotted by Kaleidagraph (Abelbeck Software, Reading, Pa.).
A general note: Two-electrode voltage clamp is typically applied to oocytes expressing channels or transporters.

The target of the next data set is α3β4 nAChR (Homo sapiens, UniProt P30926+P32297). Put plainly: Receptor subtype specificity: α3β4 nAChR activation / antagonism. The data set is classed as cell-based. Conditions: 100 μM.
α3β4 nAChR, sequence (P32297 32-505): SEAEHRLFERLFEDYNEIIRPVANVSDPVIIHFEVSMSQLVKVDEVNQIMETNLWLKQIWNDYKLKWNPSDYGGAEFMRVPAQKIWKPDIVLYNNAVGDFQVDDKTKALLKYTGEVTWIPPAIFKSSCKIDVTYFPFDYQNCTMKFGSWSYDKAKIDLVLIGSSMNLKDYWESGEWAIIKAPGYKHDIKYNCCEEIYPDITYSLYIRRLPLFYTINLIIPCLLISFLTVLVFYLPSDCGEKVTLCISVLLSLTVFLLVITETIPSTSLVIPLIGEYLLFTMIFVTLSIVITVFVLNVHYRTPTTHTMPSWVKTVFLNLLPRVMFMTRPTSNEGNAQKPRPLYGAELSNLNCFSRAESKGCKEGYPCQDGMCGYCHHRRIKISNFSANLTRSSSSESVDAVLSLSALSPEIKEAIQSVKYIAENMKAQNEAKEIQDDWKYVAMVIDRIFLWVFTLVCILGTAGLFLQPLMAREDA
α3β4 nAChR, sequence (P30926 22-498): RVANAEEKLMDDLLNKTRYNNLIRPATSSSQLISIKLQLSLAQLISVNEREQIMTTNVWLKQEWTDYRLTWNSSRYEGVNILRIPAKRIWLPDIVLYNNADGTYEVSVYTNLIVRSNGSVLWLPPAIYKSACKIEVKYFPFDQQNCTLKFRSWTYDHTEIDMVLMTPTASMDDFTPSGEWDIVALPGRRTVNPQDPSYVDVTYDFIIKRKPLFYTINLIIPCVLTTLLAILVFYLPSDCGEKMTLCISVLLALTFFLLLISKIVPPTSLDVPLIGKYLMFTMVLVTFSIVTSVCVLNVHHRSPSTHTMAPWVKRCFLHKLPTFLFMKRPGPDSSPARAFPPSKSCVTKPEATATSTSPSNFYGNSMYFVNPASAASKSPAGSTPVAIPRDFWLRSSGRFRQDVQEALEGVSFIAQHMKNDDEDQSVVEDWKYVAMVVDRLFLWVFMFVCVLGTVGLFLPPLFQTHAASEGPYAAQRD
For another data set, the target named is α4β2 nAChR (Homo sapiens, UniProt P17787+P43681). The data set is described as follows: Receptor subtype specificity: α4β2 nAChR activation / antagonism. The data set is classed as cell-based. Conditions: for antagonist activity at α4β2: 100 μM.
α4β2 nAChR, sequence (P43681 29-627 limits assumed): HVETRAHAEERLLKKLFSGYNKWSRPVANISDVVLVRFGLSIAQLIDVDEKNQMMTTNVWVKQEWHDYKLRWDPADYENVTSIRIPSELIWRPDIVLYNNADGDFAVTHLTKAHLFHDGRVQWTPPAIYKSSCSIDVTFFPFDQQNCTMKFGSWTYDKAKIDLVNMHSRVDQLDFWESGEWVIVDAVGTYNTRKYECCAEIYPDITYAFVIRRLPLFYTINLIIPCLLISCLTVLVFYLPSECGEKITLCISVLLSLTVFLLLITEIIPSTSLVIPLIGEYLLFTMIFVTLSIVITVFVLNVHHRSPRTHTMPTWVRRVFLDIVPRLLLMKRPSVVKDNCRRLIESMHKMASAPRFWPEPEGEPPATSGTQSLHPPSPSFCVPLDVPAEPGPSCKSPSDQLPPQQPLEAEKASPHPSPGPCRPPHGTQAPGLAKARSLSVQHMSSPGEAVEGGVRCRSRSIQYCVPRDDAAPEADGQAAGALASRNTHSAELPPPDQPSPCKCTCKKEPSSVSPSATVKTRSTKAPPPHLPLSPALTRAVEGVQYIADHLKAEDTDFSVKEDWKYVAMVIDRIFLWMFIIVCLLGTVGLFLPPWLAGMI
α4β2 nAChR, sequence (P17787 26-502): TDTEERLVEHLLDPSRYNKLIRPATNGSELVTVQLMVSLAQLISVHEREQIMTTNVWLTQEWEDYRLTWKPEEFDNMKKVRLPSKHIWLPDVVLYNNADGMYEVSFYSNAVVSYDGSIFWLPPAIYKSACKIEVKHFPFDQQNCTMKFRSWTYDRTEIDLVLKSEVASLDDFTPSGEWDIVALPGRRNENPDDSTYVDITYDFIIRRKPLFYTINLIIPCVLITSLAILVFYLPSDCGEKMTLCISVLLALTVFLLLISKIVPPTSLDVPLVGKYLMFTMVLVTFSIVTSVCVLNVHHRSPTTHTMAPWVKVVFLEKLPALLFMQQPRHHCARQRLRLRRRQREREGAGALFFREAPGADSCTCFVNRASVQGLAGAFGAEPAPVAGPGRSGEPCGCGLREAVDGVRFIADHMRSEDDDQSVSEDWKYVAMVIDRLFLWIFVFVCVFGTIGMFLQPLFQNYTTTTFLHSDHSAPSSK
In data set [1] the test system is LPS-stimulated secretion of TNF-α in rat cultured microglia. The settings on record: cited from earlier work.
For another data set, the system named is mouse pain models. Conditions: formalin- and acetic acid-induced nociceptive conditions, chronic constrictive nerve injury; cited from earlier work.

T1 sequence (P36544 23-502): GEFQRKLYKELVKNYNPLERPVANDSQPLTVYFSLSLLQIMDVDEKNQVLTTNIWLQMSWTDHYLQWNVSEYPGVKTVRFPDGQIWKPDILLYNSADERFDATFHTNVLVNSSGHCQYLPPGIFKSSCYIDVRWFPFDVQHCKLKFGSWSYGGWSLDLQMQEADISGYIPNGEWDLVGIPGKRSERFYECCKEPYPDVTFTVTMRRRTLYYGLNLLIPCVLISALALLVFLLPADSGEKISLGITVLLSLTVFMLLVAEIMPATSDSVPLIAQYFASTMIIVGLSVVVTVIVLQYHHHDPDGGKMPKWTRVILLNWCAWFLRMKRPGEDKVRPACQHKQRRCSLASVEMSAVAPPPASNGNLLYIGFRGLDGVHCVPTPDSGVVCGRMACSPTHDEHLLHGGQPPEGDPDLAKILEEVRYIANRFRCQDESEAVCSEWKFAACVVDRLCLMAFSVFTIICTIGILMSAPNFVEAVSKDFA

What is called melting point is the temperature, or range, at which the solid turns liquid. As to `CCN1CCN(c2ccc(OC)cc2)CC1`, the melting point fell in the range of 56.6 to 57.8 °C.

On to `CCN1CCN(c2cccc(O)c2)CC1`, for which the melting point was 150.3 to 151.6 °C.

`CCN1CCN(c2ccc3ccccc3c2)CC1` showed a melting point of 69.1 to 70 °C.

The molecule `CCN1CCN(c2ccc(Br)cc2)CC1` gave a melting point of 85 to 85.5 °C.

The molecule `CCN1CCN(c2ccc(C(F)(F)F)cc2)CC1` [Compound 1n, 1-ethyl-4-(4-(trifluoromethyl)phenyl)piperazine] returned a melting point of 56.3 to 56.5 °C. Besides, on human α7 nAChR, the Potentiated response is 1.4 ± 0 and the Relative response is reported as 0.000 ± 0.004.

With `CCN1CCN(c2ccc(F)cc2)CC1` [Compound 1r, 1-ethyl-4-(4-fluorophenyl)piperazine], the melting point lay within 30 to 30.5 °C. For the same molecule, on human α7 nAChR, the Potentiated response was 0.0 ± 0.0 and the Relative response worked out at 0.000 ± 0.003.

The molecule `CC[N+]1(CC)CCN(c2ccc(C)cc2)CC1.[I-]` [Compound 2a, 1,1-diethyl-4-p-tolylpiperazin-1-ium iodide] came in with a melting point of 147.4 to 148.8 °C. At human α7 nAChR, the “functional classification at α7 nAChR” value is given as “candidate silent agonists”, the Potentiated response is reported as 3.6 ± 2.0 and the Relative response was determined as 0.011 ± 0.003.

Take `CC[N+]1(CC)CCN(c2cccc(C)c2)CC1.[I-]` [Compound 2d, 1,1-diethyl-4-m-tolylpiperazin-1-ium iodide]: the melting point lay in the range of 144 to 145 °C. At human α7 nAChR, the “functional classification at α7 nAChR” value is “no significant activity as either partial agonists or as silent agonists”, the Potentiated response worked out at 0.2 ± 0.1 and the Relative response amounted to 0.001 ± 0.000.

Take `CC[N+]1(CC)CCN(c2cccc(OC)c2)CC1.[I-]` [Compound 2g, 1,1-diethyl-4-(3-methoxyphenyl)piperazin-1-ium iodide]: at human α7 nAChR, the “functional classification at α7 nAChR” value is “no significant activity as either partial agonists or as silent agonists”, the Potentiated response turned out to be 0.6 ± 0.2 and the Relative response was found to be 0.011 ± 0.011. Further, at human α7 nAChR (co-application with PNU-120596), the “PAM-dependent response compared to the parent unsubstituted diEPP” value came out at 50%. In addition, the “antagonism of α3β4” value at α3β4 nAChR was “significant antagonism”.

Turning to `CC[N+]1(CC)CCN(c2ccc(C(F)(F)F)cc2)CC1.[I-]` [Compound 2n, 1,1-diethyl-4-(4-(trifluoromethyl)phenyl)piperazin-1-ium iodide], on human α7 nAChR, the “functional classification at α7 nAChR” value was “candidate silent agonists”, the Potentiated response stood at 61.8 ± 7.7 and the Relative response was 0.032 ± 0.003. In addition, on α4β2 nAChR, the “activation / partial agonism of α4β2 nAChR” value was “neither to be partial agonists” and the “antagonist activity at α4β2” value is recorded as “nor to have significant antagonist activity”.

As to `CC[N+]1(CC)CCN(c2cccc(Br)c2)CC1.[I-]` [Compound 2p, 4-(3-bromophenyl)-1,1-diethylpiperazin-1-ium iodide], at human α7 nAChR, the “functional classification at α7 nAChR” value is on record as “candidate silent agonists”, the Potentiated response is 10.0±1.7 and the Relative response is reported as 0.040 ± 0.006. At human α7 nAChR (co-application with PNU-120596, meta-substituted series), the “PAM-dependent currents relative to ACh” value is reported as 9.98 fold. At α4β2 nAChR, the “activation / partial agonism of α4β2 nAChR” value is “neither to be partial agonists” and the “antagonist activity at α4β2” value is reported as “nor to have significant antagonist activity”.

Take `CC[N+]1(CC)CCN(c2ccc(C(N)=O)cc2)CC1.[I-]` [Compound 2t, 4-(4-carbamoylphenyl)-1,1-diethylpiperazin-1-ium iodide]: on human α7 nAChR, the “functional classification at α7 nAChR” value was “candidate silent agonists”, the Potentiated response is 43.9 ± 8.5 and the Relative response came out at 0.065 ± 0.009.

For `CC[N+]1(CC)CCN(c2cccc(C(N)=O)c2)CC1.[I-]` [Compound 2u, 4-(3-carbamoylphenyl)-1,1-diethylpiperazin-1-ium iodide], at human α7 nAChR, the “functional classification at α7 nAChR” value is listed as “candidate silent agonists”, the Potentiated response came to 50.7 ± 8.5 and the Relative response is given as 0.056 ± 0.022.

Take `CC[N+]1(CC)CCC(Nc2ccccc2)CC1.[I-]` [Compound 6, 1,1-diethyl-4-(phenylamino)piperidinium iodide]: on human α7 nAChR, the “functional classification at α7 nAChR” value is “no channel activation within experimental error”, the Potentiated response is given as 5.6 ± 2.1 and the Relative response worked out at 0.002 ± 0.004. The “PAM-dependent response compared to the parent diEPP” value on human α7 nAChR (co-application with PNU-120596) is listed as “enhanced PAM-dependent responses”.

`CC[N+]1(CC)CCC(=Cc2ccccc2)CC1.[I-]` [Compound 8, 4-benzylidene-1,1-diethylpiperidinium iodide]: at human α7 nAChR, the Potentiated response is given as 9.9 ± 3.1 and the Relative response is reported as 0.071 ± 0.027. The “PAM-dependent response compared to the parent diEPP” value at human α7 nAChR (co-application with PNU-120596) is reported as “enhanced PAM-dependent responses”.

Take `O=C(c1ccc(-c2cccc(C(F)(F)F)c2)o1)N1CCN2CCC1CC2` [NS-6740, 1,4-diazabicyclo[3.2.2]nonan-4-yl(5-(3-(trifluoromethyl)phenyl)furan-2-yl) methanone]: the “suppression of LPS-stimulated secretion of TNF-α” value in data set [1] is “more efficacious than some agonists (including choline)”. In addition, the antinociceptive activity result in the data set with mouse pain models was “showed antinoceptive activity”.
